Assay results as given in patent US4283408A, “Guanidinothiazole compounds, process for preparation and gastric inhibiting compositions containing them” (Yamanouchi Pharmaceutical Co., Ltd., priority 1979, dated 1981).

Columns and labels:
[1] = test system: H2 -receptor; conditions: isolated guinea pig atrium; effects mediated by the H2 -receptor; Ash and Schild, Black et al.; cited from earlier work
[2] = test system: Gastric acid secretion; experiment: Gastric acid secretion in pylorus-ligated rats; format: in vivo, Male Wister rats; conditions: Rattus norvegicus, read-out: (B) Pylorus-ligated rats ED50
Method: (ii) Gastric acid secretion in pylorus-ligated rats
Male Wister rats weighing about 200 g were deprived of food for 24 hr but allowed free access to water prior to the experiments in individual cages. […] Test compounds were intraduodenally given immediately after the ligation of pylorus. The animals were sacrificed 4 hr after drug administration and gastric contents were collected. […] The percent inhibition of gastric secretion by each dose of drugs was calculated from the acid outputs of control and of treated groups. ED50 values were determined by the probit method.

[3] = test system: Gastric acid secretion; experiment: Gastric acid secretion in anesthetized dogs (histamine-induced); format: in vivo, Mongrel dogs; conditions: Canis lupus familiaris, iv, read-out: (A) Gastric secretion ED50
Method: (i) Gastric acid secretion in anesthetized dogs: Mongrel dogs weighing 8 to 15 Kg were deprived of food for 24 hr and anesthetized intravenously with pentobarbital (30 mg/Kg). […] The gastric juice was collected from the gastric cannula by gravity drainage every 15 min. Test compounds were given intravenously after gastric secretion induced by a continuous intravenous infusion of histamine (160 μg/Kg-hr) reached a steady state.

[4] = Acute toxicity in mice; conditions: mouse, in vivo, iv; male ICR mice; i.v.; 7 days observation; up and down method; base; read-out: (C) LD50 in mice
Method: (iii) Acute toxicity in mice
Drugs were injected intravenously in male ICR mice weighing about 35 g at a rate of 0.1 ml/10 sec and the animals were kept under observation for 7 days. LD50 values were determined by up and down method using 10 animals. The data are shown in Table I, under column entitled (C).

[5] = pylorus-ligated rats, intraduodenal, 4 hr, probit method, base
[6] = anesthetized dogs, i.v., histamine infusion 160 μg/Kg-hr, dose producing 50% inhibition of the acid output, base

In the case of `COc1ccc(CN(CCN(C)C)c2ccccn2)cc1` [mepyramine], the “inhibition of histamine effects on gastric acid secretion and heart rate” value [1] is listed as “not inhibited”.
In the case of `C/N=C(\S)NCCSCc1[nH]cnc1C` [metiamide], the “inhibition of histamine effects on gastric acid secretion and heart rate” value [1] is listed as “antagonized”.
Work on `NC(N)=Nc1nc(CSCCC(N)=NS(N)(=O)=O)cs1` [Example 1, N-sulfamoyl-3-[(2-guanidinothiazol-4-yl)methylthio]propionamidine] yielded an ED50 [2, 5] of 0.87 mg/kg, an ED50 [3, 6] of 0.0087 ± 0.0005 mg/kg and an LD50 at 168 h [4] of 244 mg/kg.
In the case of `CS(=O)(=O)NC(=N)CCSCc1csc(NC(=N)N)n1` [Example 2, N-methanesulfonyl-3-[(2-guanidinothiazol-4-yl)-methylthio]propionamidine], the ED50 [2, 5] is reported as 8.9 mg/kg, the ED50 [3, 6] is reported as 0.0191 ± 0.0026 mg/kg and the LD50 at 168 h [4] is reported as 152 mg/kg.
`N#CN=C(N)NCCSCc1csc(NC(=N)N)n1` [Compound B, 2guanidino-4-[2(2-cyanoguanidino)ethylthiomethyl]thiazole] showed an ED50 [2, 5] of 49.3 mg/kg, an ED50 [3, 6] of 0.0352 ± 0.0022 mg/kg and an LD50 at 168 h [4] of 94.6 mg/kg.
`CN/C(=N/CCSCc1nc[nH]c1C)NC#N` [Compound A, Ncyano-Nmethyl-N{2[(4methyl-5-imidazolyl)methylthio]ethyl}guanidine] gave an ED50 ([2]; 4 h) of 42.6 mg/kg, an ED50 [3] of 0.333 ± 0.042 mg/kg and an LD50 at 168 h [4] of 152 mg/kg.
